In patent US12096770B2, “Method for preparing an insect repellent agent” (CENTRE NATIONAL DE LA RECHERCHE SCIENTIFIQUE, priority 2019, dated 2024):
Values after ≈ are worked out from the molar mass of the structure shown. Values joined by “and” are separate entries in the source; they are usually repeats but may differ in a detail not shown here. Equal entries are not always repeated.

How the values were obtained:
Aedes albopictus = experiment: Behavioural (blood-feeding) repellency test on tiger mosquitoes with feeders covered by pig intestinal skin; type: in vivo; conditions: for % Repellency: 1 hour, relative to EtOH negative control, mean ± standard deviation of 16 replicates; for effect of added compound on repellent activity of PMD: added to commercial cis/trans PMD 75/25 at 200 mg/m^2 in EtOH
Experimental: Testing was performed as to the activity of the compositions obtained by the method according to the invention on the behaviour of the tiger mosquito, Aedes albopictus.
The behavioural tests were carried out at the Montpellier Vectopôle, which is a research centre that collaborates with the WHO for the evaluation of insecticides in public health.
The tests were carried out on mosquitoes aged 5 to 9 days old after their evolution from pupae to adult.
In preparation for the experiment, the mosquitoes were […] on the day prior thereto, in order to promote their appetite for the test to occur the subsequent day.
Each cup contains a damp cotton. The female mosquitoes were removed from the cage making use of a tube that enables aspiration thereof. They were then introduced into each experiment cup (10 mosquitoes per cup).
The tests were carried out on plexiglass racks serving as supports for glass bells known as feeders. The latter are connected to each other by plastic pipes wherein water circulates at 37° C.
Pig intestinal skin was used to mimic human skin in the experiment. The pieces of intestinal skin are positioned and stretched over the feeders.
The repellent is diluted in ethyl alcohol (aka ethanol or EtOH) and is deposited on the skin using a micropipette and then spread over the entire surface. […] If the composition tested is a mixture of at least two compounds, one of which is PMD, the said composition is diluted in ethanol until 0.02036 mg/μL of PMD is obtained.
The feeders are turned over, then 300 μL of sheep blood are placed in each feeder. The cups are inserted under each feeder.
Polystyrene plates are inserted between the lines of repellent so as to avoid possible interactions of odours. The duration of the experiment is one hour. The cups are then placed in a freezer at −20° C. for a period of 40 minutes. After freezing, the contents of one cup are placed between two sheets of paper, with the entirety thereof then being crushed with a plexiglass plate. The counting of the blood-fed (engorged) mosquitoes is done based on the number of red dots on the sheet of paper. The results are expressed as a percentage of repellency (100% −X% of blood-feeding). The percentage of blood-feeding is defined in relation to the EtOH negative control. DEET and commercial cis/trans PMD 75/25 at 200 mg/m^2 were used as positive controls.
The results obtained were statistically analysed using R software (R Development Core Team. R: A language and environment for statistical computing. R Foundation for Statistical Computing, Vienna, Austria. ISBN 3-900051-07-0, 2013) and represent the mean of 16 replicates. The percentage repellency values are presented as a mean±standard deviation. The R software also makes it possible to compare two percentage repellency values by means of calculating the quantity p. This quantity p is a probability.

acetylcholinesterase = conditions: cited from earlier work
[1] = tested on: olfactory receptors of Aedes albopictus; experiment: Orientation tests in ElectroAntennogGraphy coupled with Gas Chromatography
Experimental: Orientation tests in ElectroAntennogGraphy coupled with Gas Chromatography were carried out.

SMILES | % Repellency (Aedes albopictus; 200 mg/m^2 (of PMD) in EtOH) | effect of added compound on repellent activity of PMD (Aedes albopictus) | other results
CC1CCC(C(C)(C)O)C(O)C1 (mixture of isomers) [Commercial cis/trans PMD 60/40, p-menthane-3,8-diol] | 68 ± 15% | – | –
CC1CCC(C(C)(C)O)C(O)C1 (mixture of isomers) [Commercial cis/trans PMD 75/25 derived from R citronellal] [p-menthane-3,8-diol] | 24 ± 2% | – | –
CC1CCC(C(C)(C)O)C(O)C1 (mixture of isomers) [Commercial cis/trans PMD 75/25 derived from S citronellal] [p-menthane-3,8-diol] | 41 ± 3% | – | –
CC1CCC(C(C)(C)O)C(O)C1 (racemic) [Commercial cis/trans PMD 75/25, p-menthane-3,8-diol] | 79 ± 4% and 59 ± 14% and 68 ± 2% and 55 ± 10% and 60 ± 5% and 65 ± 8% and 69 ± 13% and 63 ± 9% and 59 ± 9% and 56 ± 13% | – | % Repellency (Aedes albopictus; 200 mg/m^2 (of PMD) in EtOH, listed as Commercial cis/trans PMD 75/25 derived from RS citronellal (racemic mixture)): 34 ± 1%; ED 50 expressed as concentration (Aedes albopictus; concentration in EtOH tantamount to 200 mg/m^2): 20.36 mg/mL (≈ 118 mM); ED 50 (median effective dose) (Aedes albopictus; dose deposited on skin): 200 mg/m^2
CC1CCC(C(C)(C)O)C(O)C1 (stereo not drawn) [Commercial cis PMD, p-menthane-3,8-diol] | 64 ± 15% | – | –
CC1CCC(C(C)(C)O)C(O)C1 (stereo not drawn) [Commercial trans PMD, p-menthane-3,8-diol] | 57 ± 6% | – | –
CCN(CC)C(=O)c1cccc(C)c1 [DEET, N,N diethyl-meta-toluamide] | – | – | acetylcholinesterase inhibition (acetylcholinesterase): inhibits; % Repellency (Aedes albopictus; 110 mg/m^2 in EtOH): 63 ± 5% and 49 ± 4% and 68 ± 10% and 43 ± 1% and 41 ± 6% and 63 ± 8% and 73 ± 7% and 28 ± 8%
CC1CCC(C(C)(C)O)C(O)C1 (stereo not drawn) [PMD, (2-hydroxypropan-2-yl)-5-methylcyclohexan-1-ol] | – | – | recognition in ElectroAntennogGraphy [1]: recognised at very low doses
CC(C)=CCCC(C)CC1OC2CC(C)CCC2C(C)(C)O1 (stereo not drawn) [acetals] | – | enhance the repellent activity of PMD | –
C=C1CC/C=C(\C)CC[C@@H]2[C@@H]1CC2(C)C [caryophyllene, (1R,4E,9S)-4,11,11-trimethyl-8-methylidenebicyclo[7.2.0]undec-4-ene] | – | enhances the repellent activity of PMD | recognition in ElectroAntennogGraphy [1]: recognised at very low doses
CC(C)=CCCC(C)CC=O (stereo not drawn) [citronellal, 3,7-dimethyloct-6-en-1-al] | – | does not boost PMD activity | –
CC(C)=CCCC(C)CCO (stereo not drawn) [citronellol, 3,7-dimethyloct-6-en-1-ol] | – | – | recognition in ElectroAntennogGraphy [1]: recognised at very low doses
C=C(C)C1CCC(C)CC1O (stereo not drawn) [isopulegol, 5-methyl-2-prop-1-en-2-ylcyclohexan-1-ol] | – | may enhance the repellent activity of PMD | –
